Reference: US9611256B2, “Alkyne-, azide- and triazole-containing flavonoids as modulators for multidrug resistance in cancers” (The Hong Kong Polytechnic University, priority 2012, dated 2017)

How the values were obtained:
[1] = system: P-gp, MRP1 and BCRP transporters; assay: Selectivity for ABC transporters, determined from % of reversion (Tables 1 and 2); assay type: cell-based, human; conditions: determined from % of reversion in Table 1 (>80% strongly, 79-50% moderately selective)
Description: Generally, the triazole dimers library can be divided into mono-selective, dual-selective and multi-selective ABC transporter modulators. Table 2 summarizes the selectivity of different active triazole dimers and some monomeric azides for the ABC transporters. […] From the study, it seems that the simple monomeric azides could be a highly BCRP-selective inhibitor. […] It is possible that differently selective (mono-, dual- and multi-) inhibitors of drug transporters could be potentially useful tools for investigation of complicated drug-resistance phenotypes and eventually, for treatment of drug-resistant cancers caused by overexpression of ABC transporters.
The selectivity of active triazole compounds for various ABC transporters was determined from the Table 1. It would be considered as strongly selective if it causes >80% of reversion. It would be considered as moderately selective if it results in 79-50% of reversion. Overall, the active triazole compounds can be divided into mono-, dual- and multi-selective for P-gp, MRP1 and BCRP transporters.

[2] = in vitro; conditions: mouse
[3] = molecular target: T1, MRP1 (Homo sapiens, UniProt P33527); assay: Reversal of MRP1-mediated DOX resistance in 2008/MRP1 cells (cell proliferation assay); conditions: for DOX resistance of 2008/MRP1 Therapeutic index: (IC50 towards L929 or Raw264.7)/(EC50 for reversing drug resistance)
[4] = molecular target: T1, MRP1; assay: Reversal of MRP1-mediated vincristine resistance in 2008/MRP1 cells (cell proliferation assay); conditions: (IC50 towards L929 or Raw264.7)/(EC50 for reversing drug resistance)
[5] = molecular target: T2, BCRP (Homo sapiens, UniProt Q9UNQ0); assay: cell-based
T2 sequence (Q9UNQ0 1-655): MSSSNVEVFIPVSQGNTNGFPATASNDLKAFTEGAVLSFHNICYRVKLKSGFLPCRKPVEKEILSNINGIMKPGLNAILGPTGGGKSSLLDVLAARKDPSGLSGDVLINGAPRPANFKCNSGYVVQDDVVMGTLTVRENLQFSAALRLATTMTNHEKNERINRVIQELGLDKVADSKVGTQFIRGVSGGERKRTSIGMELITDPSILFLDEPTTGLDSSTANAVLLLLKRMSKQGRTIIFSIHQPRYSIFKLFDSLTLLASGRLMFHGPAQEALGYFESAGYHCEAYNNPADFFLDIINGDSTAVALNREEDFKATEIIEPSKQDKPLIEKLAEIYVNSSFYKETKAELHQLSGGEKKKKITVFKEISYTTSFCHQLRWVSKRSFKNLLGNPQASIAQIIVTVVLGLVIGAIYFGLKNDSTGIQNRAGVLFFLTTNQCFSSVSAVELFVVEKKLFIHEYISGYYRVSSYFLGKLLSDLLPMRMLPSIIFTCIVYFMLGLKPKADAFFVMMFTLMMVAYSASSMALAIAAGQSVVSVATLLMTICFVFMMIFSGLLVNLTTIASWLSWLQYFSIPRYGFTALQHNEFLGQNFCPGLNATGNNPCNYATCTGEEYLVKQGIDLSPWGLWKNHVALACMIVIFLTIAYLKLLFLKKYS

[6] = molecular target: T2, BCRP; assay: Reversal of BCRP-mediated topotecan resistance in MCF7-MX100 cells (cell proliferation assay); conditions: for Topotecan resistance of MCF7-MX100 Therapeutic index: (IC50 towards L929 or Raw264.7)/(EC50 for reversing drug resistance)

T1 sequence (P33527 whole entry): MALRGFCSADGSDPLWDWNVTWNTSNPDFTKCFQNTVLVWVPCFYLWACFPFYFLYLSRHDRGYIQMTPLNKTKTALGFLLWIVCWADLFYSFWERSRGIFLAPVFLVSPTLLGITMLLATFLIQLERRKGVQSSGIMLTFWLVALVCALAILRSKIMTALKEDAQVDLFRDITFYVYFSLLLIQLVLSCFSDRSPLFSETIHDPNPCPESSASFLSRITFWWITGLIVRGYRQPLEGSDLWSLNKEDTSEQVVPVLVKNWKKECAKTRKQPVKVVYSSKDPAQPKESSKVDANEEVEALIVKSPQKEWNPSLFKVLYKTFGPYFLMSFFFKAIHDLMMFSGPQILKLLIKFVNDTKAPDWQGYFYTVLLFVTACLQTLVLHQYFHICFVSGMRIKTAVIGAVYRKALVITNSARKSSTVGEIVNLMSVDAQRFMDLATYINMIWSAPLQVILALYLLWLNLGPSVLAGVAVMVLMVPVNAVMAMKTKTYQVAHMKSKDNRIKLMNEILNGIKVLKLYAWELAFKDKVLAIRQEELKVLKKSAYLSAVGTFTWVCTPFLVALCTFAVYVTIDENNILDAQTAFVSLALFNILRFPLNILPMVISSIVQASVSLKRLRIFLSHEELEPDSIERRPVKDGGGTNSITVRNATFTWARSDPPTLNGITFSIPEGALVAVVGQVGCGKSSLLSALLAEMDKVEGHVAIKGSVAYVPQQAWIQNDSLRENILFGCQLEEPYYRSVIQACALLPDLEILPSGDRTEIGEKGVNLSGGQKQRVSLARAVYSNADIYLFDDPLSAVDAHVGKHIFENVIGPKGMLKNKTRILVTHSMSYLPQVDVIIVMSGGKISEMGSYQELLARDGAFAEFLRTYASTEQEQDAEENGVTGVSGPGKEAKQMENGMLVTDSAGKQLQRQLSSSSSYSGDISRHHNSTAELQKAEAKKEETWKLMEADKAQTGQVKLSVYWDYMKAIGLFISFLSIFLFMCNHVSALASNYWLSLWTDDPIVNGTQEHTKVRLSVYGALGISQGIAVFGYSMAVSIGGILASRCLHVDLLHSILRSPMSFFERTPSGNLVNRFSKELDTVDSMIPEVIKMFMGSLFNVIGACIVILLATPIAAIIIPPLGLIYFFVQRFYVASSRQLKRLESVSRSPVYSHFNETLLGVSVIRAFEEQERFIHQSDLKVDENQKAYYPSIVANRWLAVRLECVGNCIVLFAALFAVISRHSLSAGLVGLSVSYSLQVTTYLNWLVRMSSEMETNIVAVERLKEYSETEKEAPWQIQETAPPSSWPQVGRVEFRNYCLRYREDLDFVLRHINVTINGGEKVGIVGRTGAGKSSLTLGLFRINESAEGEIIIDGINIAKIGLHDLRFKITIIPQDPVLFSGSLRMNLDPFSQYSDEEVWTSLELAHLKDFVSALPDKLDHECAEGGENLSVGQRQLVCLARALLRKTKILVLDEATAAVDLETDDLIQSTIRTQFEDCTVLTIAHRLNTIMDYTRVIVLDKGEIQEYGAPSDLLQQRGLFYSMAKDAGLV

Selectivity for ABC transporters (P-gp, MRP1, BCRP) [1] | IC50 at 5 days [2] [µM] | EC50 [5] [µM] | % of reversion of sensitivity of 2008/MRP1 towards DOX ([3]; triazole dimers at 1.0 μM) | SMILES | DOX resistance of 2008/MRP1 Therapeutic index [3] | Vincristine resistance of 2008/MRP1 Therapeutic index [4] | Topotecan resistance of MCF7-MX100 Therapeutic index [6] | % of reversion of sensitivity of MCF7-MX100 towards topotecan ([6]; triazole dimers at 1.0 μM)
MRP1- and BCRP-dual selectivity | > 100 | ≤ 0.01 | about 55.9% | COC(=O)c1cccc(COc2c(-c3ccc(OCCOCCn4cc(COCCOc5ccc6c(=O)cc(-c7ccccc7)oc6c5)nn4)cc3)oc3ccccc3c2=O)c1 [Ac13Az8, Methyl 3-(((4-oxo-2-(4-(2-(2-(4-((2-((4-oxo-2-phenyl-4H-chromen-7-yl)oxy)ethoxy)methyl)-1H-1,2,3-triazol-1-yl)ethoxy)ethoxy)phenyl)-4H-chromen-3-yl)oxy)methyl)benzoate] |  |  | >16666.7 | about 80.0%
mono-BCRP selectivity | > 100 | ≤ 0.01 |  | COC(=O)c1cccc(COc2c(-c3ccc(OCCOCCn4cc(CN(Cc5ccccc5)Cc5cn(CCOCCOc6ccc(-c7oc8ccccc8c(=O)c7OCc7cccc(C(=O)OC)c7)cc6)nn5)nn4)cc3)oc3ccccc3c2=O)c1 [Ac15Az8, Dimethyl 3,3′-(((2,2′-((((((4,4′-((benzylazanediyl)bis(methylene))bis(1H-1,2,3-triazole-4,1-diyl))bis(ethane-2,1-diyl))bis(oxy))bis(ethane-2,1-diyl))bis(oxy))bis(4,1-phenylene))bis(4-oxo-4H-chromene-3,2-diyl))bis(oxy))bis(methylene))dibenzoate] |  |  | >76923.1 | 
mono-BCRP selectivity | > 100 | ≤ 0.01 |  | COC(=O)c1cccc(COc2c(-c3ccc(OCCOCCOCCn4cc(CN(Cc5ccccc5)Cc5cn(CCOCCOCCOc6ccc(-c7oc8ccccc8c(=O)c7OCc7cccc(C(=O)OC)c7)cc6)nn5)nn4)cc3)oc3ccccc3c2=O)c1 [Ac15Az9, Dimethyl 3,3′-(((2,2′-((((((((4,4′-((benzylazanediyl)bis(methylene))bis(1H-1,2,3-triazole-4,1-diyl))bis(ethane-2,1-diyl))bis(oxy))bis(ethane-2,1-diyl))bis(oxy))bis(ethane-2,1-diyl))bis(oxy))bis(4,1-phenylene))bis(4-oxo-4H-chromene-3,2-diyl))bis(oxy))bis(methylene))dibenzoate] |  |  | >50000.0 | 

Second part, the molecule before the results:

SMILES | Selectivity for ABC transporters (P-gp, MRP1, BCRP) [1] | IC50 at 5 days [2] [µM] | EC50 [5] [µM] | % of reversion of sensitivity of 2008/MRP1 towards DOX ([3]; triazole dimers at 1.0 μM) | DOX resistance of 2008/MRP1 Therapeutic index [3] | Vincristine resistance of 2008/MRP1 Therapeutic index [4] | Topotecan resistance of MCF7-MX100 Therapeutic index [6] | % of reversion of sensitivity of MCF7-MX100 towards topotecan ([6]; triazole dimers at 1.0 μM)
O=c1cc(-c2ccc(OCCOCCOCCn3cc(CCCCOc4ccc5c(=O)cc(-c6ccccc6)oc5c4)nn3)cc2)oc2ccccc12 [Ac12Az2, 7-(4-(1-(2-(2-(2-(4-(4-Oxo-4H-chromen-2-yl)phenoxy)ethoxy)ethoxy)ethyl)-1H-1,2,3-triazol-4-yl)butoxy)-2-phenyl-4H-chromen-4-one] | MRP1- and BCRP-dual selectivity | > 50 |  |  | >298.5 | >377.9 |  | 
O=c1cc(-c2ccccc2)oc2cc(OCCCCc3cn(CCOCCOCCOc4ccc(-c5cc(=O)c6cc(F)ccc6o5)cc4)nn3)ccc12 [Ac12Az4, 6-Fluoro-2-(4-(2-(2-(2-(4-(4-((4-oxo-2-phenyl-4H-chromen-7-yl)oxy)butyl)-1H-1,2,3-triazol-1-yl)ethoxy)ethoxy)ethoxy)phenyl)-4H-chromen-4-one] | MRP1- and BCRP-dual selectivity | > 100 |  |  | >525.5 | >736.9 |  | 
COC(=O)c1cccc(COc2c(-c3ccc(OCCOCCOCCN=[N+]=[N-])cc3)oc3ccccc3c2=O)c1 [Az9, Methyl 3-(((2-(4-(2-(2-(2-azidoethoxy)ethoxy)ethoxy)phenyl)-4-oxo-4H-chromen-3-yl)oxy)methyl)benzoate] | mono-BCRP selectivity | 20.6 | ≤ 0.01 |  |  |  | 2019.6 | 
